Laboratory results published in patent publication US4220637A (Agence Nationale de Valorisation de la Recherche, priority 1976, dated 1980).

Test system: rabbits
Assay: pyrogenic effect test on rabbits (Pharmacopee Francaise, 9th edition, II-235)
Assay type: in vivo

CC(=O)N[C@H]1C(O)O[C@H](CO)[C@@H](O)[C@@H]1O[C@H](C)C(=O)N[C@@H](C)C(=O)N[C@H](CCC(N)=O)C(N)=O (stereo partly drawn) [Mur-NAc-L-Ala-D-Glu(NH2)--NH2, diamide of the 2-(2-acetamido-2-deoxy-3-O-D-glucopyranosyl)-D-propionyl-L-alanyl-D-glutamic acid]
increase of temperature (2 mg/kg, sub-cutaneously and intravenously): did not induce any increase of temperature
pyrogenic effect (Pharmacopee Francaise protocol): fully devoid of any pyrogenic effect
